Results taken from patent publication US5475132A, “Antifungal agents based on amides containing a phenyl group” (Rhone-Poulenc Agrochimie, priority 1988, dated 1995).

Each compound was assayed on Phytophthora citrophthora (assay: Example B3: action on phytopathogenic soil fungi, growth on agar in Petri dishes). Conditions: 120 h, 30 ppm, agar medium, 22° C., 5 days, read-out: inhibition of the development of the fungus.
Assay type: cell-based

SMILES	inhibition at 30 ppm
COc1ccc(-c2c(C(=O)N3CCOCC3)sc3ccc(I)cc23)cc1OC [Compound 101, 2-(4-morpholinocarbonyl)-5-iodo-3-(3,4-dimethoxyphenyl)benzothiophene]	≥ 80%
COc1ccc(-c2c(C(=O)N3CCOCC3)sc3ccc(NC(=O)c4ccc(Cl)cc4)cc23)cc1OC [Compound 102, 2-(4-Morpholinocarbonyl)-5-(4-chlorobenzoylamino)-3-(3,4-dimethoxyphenyl)benzothiophene]	≥ 80%
COc1ccc(-c2c(C(=O)N3CCOCC3)sc3ccc([N+](=O)[O-])cc23)cc1OC [Compound 104, 2-(4-Morpholinocarbonyl)-5-nitro-3-(3,4-dimethoxyphenyl)benzothiophene]	≥ 80%
C=C(C)c1ccc2sc(C(=O)N3CCOCC3)c(-c3ccc(OC)c(OC)c3)c2c1 [Compound 105, 2-(4-Morpholinocarbonyl)-5-(propen-2-yl)-3-(3,4-dimethoxyphenyl)benzothiophene]	≥ 80%
CCN(CC)C(=O)c1sc2ccccc2c1-c1ccc(OC)c(OC)c1 [Compound 107, 2-(N,N-Diethylcarboxamide)-3-(3,4-dimethoxyphenyl)benzothiophene]	≥ 80%
COc1ccc(C2=C(C(=O)N3CCOCC3)C(O)c3ccccc32)cc1OC (stereo not drawn) [Compound 110, 1-(3,4-Dimethoxyphenyl)-2-morpholinocarbonyl-3-hydroxyindene]	≥ 80%
COc1ccc2c(c1)CC(C(=O)N1CCOCC1)=C2c1ccc(OC)c(OC)c1 [Compound 111, 2-Morpholinocarbonyl-3-(3,,4-dimethoxyphenyl)-6-mehoxyindene]	≥ 80%
COc1ccc(C2=C(C(=O)N3CCOCC3)Cc3cc(OC)c(OC)cc32)cc1OC [Compound 112, 2-Morpholinocarbonyl-3-(3,4-dimethoxyphenyl)-5,6-methoxyindene]	≥ 80%
COc1ccc(-c2c(C(=O)N3CCOCC3)sc3ccc(Cl)cc23)cc1OC [Compound 113]	≥ 80%
COc1ccc(-c2c(C(=O)N3CCOCC3)sc3ccc(Br)cc23)cc1OC [Compound 114]	≥ 80%
COc1ccc(-c2c(C(=O)N3CCOCC3)sc3ccc(NC(C)=O)cc23)cc1OC [Compound 115]	≥ 80%
COc1ccc(-c2c(C(=O)N3CCOCC3)sc3ccc(NC(=O)C(F)(F)F)cc23)cc1OC [Compound 116]	≥ 80%
COc1ccc(-c2c(C(=O)N3CCOCC3)sc3ccc(F)cc23)cc1OC [Compound 117]	≥ 80%
COc1ccc(-c2c(C(=O)N3CCOCC3)sc3ccccc23)cc1OC [Compound 118]	≥ 80%
COc1ccc(-c2c(C(=O)N3CCOCC3)sc3c(N)cccc23)cc1OC [Compound 121]	≥ 80%
COc1ccc(-c2c(C(=O)N3CCOCC3)sc3c(F)cccc23)cc1OC [Compound 122]	≥ 80%
COc1ccc(-c2c(C(=O)N3CCOCC3)sc3c(Br)cccc23)cc1OC [Compound 123]	≥ 80%
COc1ccc(-c2c(C(=O)N3CCOCC3)sc3c(Cl)cccc23)cc1OC [Compound 124]	≥ 80%
COc1ccc(-c2c(C(=O)N3CCOCC3)sc3cc(Cl)ccc23)cc1OC [Compound 125]	≥ 80%
COc1ccc(-c2c(C(=O)N3CCOCC3)sc3c(-c4ccccc4)cccc23)cc1OC [Compound 126]	≥ 80%
COc1ccc(-c2c(C(=O)N3CCOCC3)sc3c(C)cccc23)cc1OC [Compound 127]	≥ 80%
COc1ccc(-c2c(C(=O)N3CCOCC3)sc3cccc(Cl)c23)cc1OC [Compound 128]	≥ 80%
COc1ccc(-c2c(C(=O)N3CCOCC3)sc3cccc(F)c23)cc1OC [Compound 129]	≥ 80%
COc1ccc(-c2c(C(=O)N3CCOCC3)sc3c(NC(=O)C(F)(F)F)cccc23)cc1OC [Compound 131]	≥ 80%
COc1ccc(-c2c(C(=O)N3CCOCC3)sc3c(NC(C)=O)cccc23)cc1OC [Compound 132]	≥ 80%

SMILES	inhibition at 30 ppm
COc1ccc(-c2c(C(=O)N3CCOCC3)sc3ccc(C(F)(F)F)cc23)cc1OC [Compound 133]	≥ 80%
COc1ccc(-c2c(C(=O)N3CCOCC3)sc3ccc(-c4ccsc4)cc23)cc1OC [Compound 134]	≥ 80%
COc1ccc(-c2c(C(=O)N3CCOCC3)sc3ccc(-c4ccccc4)cc23)cc1OC [Compound 135]	≥ 80%
COc1ccc(-c2c(C(=O)N3CCOCC3)oc3ccc([N+](=O)[O-])cc23)cc1OC [Compound 136]	≥ 80%
COc1ccc(-c2c(C(=O)N3CCOCC3)oc3ccccc23)cc1OC [Compound 137]	≥ 80%
COc1ccc(-c2c(C(=O)N3CCOCC3)n(C)c3ccc([N+](=O)[O-])cc23)cc1OC [Compound 141]	≥ 80%
COc1ccc(C2=C(C(=O)N3CCOCC3)Cc3cc(OC)c(OC)cc32)cc1 [Compound 149]	≥ 80%
CCN(C)C(=O)c1sc2ccccc2c1-c1ccc(OC)c(OC)c1 [Compound 150]	≥ 80%
COc1ccc(-c2c(C(=O)N3CCCCC3)sc3ccccc23)cc1OC [Compound 153]	≥ 80%
COc1ccc(-c2c(C(=O)N3CCCC3)sc3ccccc23)cc1OC [Compound 154]	≥ 80%
COc1ccc(-c2c(C(=O)N(C)C)sc3ccccc23)cc1OC [Compound 155]	≥ 80%
COc1ccc(-c2c(C(=O)N(C)CCO)sc3ccccc23)cc1OC [Compound 156]	≥ 80%
COc1ccc(-c2c(C(=O)N3CCCCC3CO)sc3ccccc23)cc1OC (stereo not drawn) [Compound 157]	≥ 80%
COCCN(C)C(=O)c1sc2ccccc2c1-c1ccc(OC)c(OC)c1 [Compound 158]	≥ 80%
COCC1CCCN1C(=O)c1sc2ccccc2c1-c1ccc(OC)c(OC)c1 (stereo not drawn) [Compound 163]	≥ 80%
COc1ccc(-c2c(C(=O)N3CCCC(O)C3)sc3ccccc23)cc1OC (stereo not drawn) [Compound 164]	≥ 80%
COc1ccc(-c2c(C(=O)N3CCCC(OC)C3)sc3ccccc23)cc1OC (stereo not drawn) [Compound 166]	≥ 80%
CCN(C)C(=O)c1sc2ccc(F)cc2c1-c1ccc(OC)c(OC)c1 [Compound 167]	≥ 80%
COCCN(C)C(=O)c1sc2ccc(F)cc2c1-c1ccc(OC)c(OC)c1 [Compound 169]	≥ 80%
COc1ccc(-c2cc(-c3ccc(F)cc3)ccc2C(=O)N2CCOCC2)cc1OC [Compound 201, 2-(3,4-Dimethoxyphenyl)-4-(4-fluorophenyl)-1-morpholinocarbonylbenzene]	≥ 80%
COc1ccc(-c2cc(-c3ccccc3)ccc2C(=O)N2CCOCC2)cc1OC [Compound 202]	≥ 80%
COc1ccc(-c2cc(-c3ccc(C)cc3)ccc2C(=O)N2CCOCC2)cc1OC [Compound 203]	≥ 80%
COCCN(C)C(=O)c1ccc(Br)cc1-c1ccc(OC)c(OC)c1 [Compound 204]	≥ 80%
CCN(CC)C(=O)c1ccc(Br)cc1-c1ccc(OC)c(OC)c1 [Compound 205]	≥ 80%
CCN(C)C(=O)c1ccc(Br)cc1-c1ccc(OC)c(OC)c1 [Compound 206]	≥ 80%

Same assay, conditions: 120 h, read-out: inhibition of the development of the fungus

SMILES	inhibition at 30 ppm
COc1ccc(-c2c(C(=O)N3CCC(=O)CC3)sc3ccccc23)cc1OC [Compound 162]	≥ 80%
